From patent US10131663B2, “Chemical compounds” (AstraZeneca AB, priority 2016, dated 2018) come the findings set out here.

Values after ≈ are worked out from the molar mass of the structure shown. A value given as a limit tells only on which side of the number the result lay.

Series [1] can be described thus: log D (shake flask, 1-octanol/aqueous buffer). Type of series: physicochemical. The text has this: The lipophilicity of a drug is an important physical property which may influence many biological and metabolic properties of a compound, for example the absorption, distribution, metabolism, excretion and toxicity profiles of a compound. The distribution coefficient between 1-octanol and aqueous buffer, Log DO/W, at pH 7.4, is the most commonly used measurement of the lipophilicity of a compound. The current method for measurement of Log DO/W is based on the traditional shake flask technique, but with the modification of measuring compounds in mixtures of ten at a time using UPLC with quantitative mass spectrometry (MS) as a method to measure the relative octanol and aqueous concentrations. […] An additional QC sample Caffeine, with low Log D, are used and randomly placed in all runs. The method has been thoroughly validated against the previous shake flask methodologies.

The target of series [2] is recombinant human Estrogen Receptor alpha ligand binding domain (ER alpha-LBD (GST)) (Homo sapiens (Human), UniProt P03372). Nature of the series: ERα binding assay (LanthaScreen TR-FRET competition). The settings on record: TR-FRET, displacement of Fluormone ES2. The protocol:
The ability of compounds to bind to isolated Estrogen Receptor Alpha Ligand binding domain (ER alpha-LBD (GST)) was assessed in competition assays using a LanthaScreen™ Time-Resolved Fluorescence Resonance Energy Transfer (TR-FRET) detection end-point. […] The assay principle is that ER alpha-LBD (GST) is added to a fluorescent ligand to form a receptor/fluorophore complex. A terbium-labelled anti-GST antibody (Product code PV3551) is used to indirectly label the receptor by binding to its GST tag, and competitive binding is detected by a test compound's ability to displace the fluorescent ligand, resulting in a loss of TR-FRET signal between the Tb-anti-GST antibody and the tracer. The assay was performed as follows with all reagent additions carried out using the Beckman Coulter BioRAPTR FRD microfluidic workstation: • 1. Acoustic dispense 120 nL of the test compound into a black low volume 384 well assay plates. • 2. Prepare 1×ER alpha-LBD/Tb-antiGST Ab in ES2 screening buffer and incubate for 15 minutes. • 3. Dispense 6 μL of the 1×[…]/Tb-anti-GST Ab reagent into each well of the assay plate followed by 6 μL of Fluorophore reagent into each well of the assay plate • 4. Cover the assay plate to protect the reagents from light and evaporation, and incubate at room temperature for 4 hours. • 5.
TR-FRET dose response data obtained with each compound was exported into a suitable software package (such as Origin or Genedata) to perform curve fitting analysis. Competitive ER alpha binding was expressed as an IC50 value.

A short description of series [3]: Thermodynamic solubility (shake-flask). The settings on record: aqueous phosphate buffer, 25 °C, pH 7.4, aqueous buffer, thermodynamic from solid, aqueous phosphate buffer pH 7.4, 24 hours. Type of series: physicochemical. The protocol:
The thermodynamic solubility of a research compound is measured under standard conditions. It is a shake-flask approach that uses 10 mM DMSO solutions which are supplied from the Compound Managements liquid store and is a high throughput method. The dried compounds are equilibrated in an aqueous phosphate buffer (pH 7.4) for 24 hours at 25° C., the portion with the dissolved compound is then separated from the remains. The solutions are analyzed and quantified using UPLC/MS/MS, QC-samples are incorporated in each assay-run to ensure the quality of the assay.

The target of series [4] is Estrogen Receptor (ERα) in MCF-7 cells (Homo sapiens (Human), UniProt P03372). Nature of the series: MCF-7 ER down-regulation assay (immuno-fluorescence). It counts as cell-based. The settings on record: for DC50: read-out: ER down regulation IC50 value. The protocol: The Echo uses acoustic technology to perform direct microplate-to-microplate transfers of DMSO compound solutions to assay plates. […] Cells were fixed at room temperature for 20 mins before being washed two times with 250 μL PBS/Proclin (PBS with a Biocide preservative) using a BioTek platewasher, 40 μL of PBS/Proclin was then added to all wells and the plates stored at 4° C. The fixing method described above was carried out on the Integrated Echo 2 workcell. Immunostaining was performed using an automated AutoElisa workcell. […] The plates were incubated overnight at 4° C. […] The mean total intensity was normalized for cell number giving the total intensity per cell. The data was exported into a suitable software package (such as Origin) to perform curve fitting analysis.
Sequence of Estrogen Receptor (ERα) in MCF-7 cells (P03372 whole entry): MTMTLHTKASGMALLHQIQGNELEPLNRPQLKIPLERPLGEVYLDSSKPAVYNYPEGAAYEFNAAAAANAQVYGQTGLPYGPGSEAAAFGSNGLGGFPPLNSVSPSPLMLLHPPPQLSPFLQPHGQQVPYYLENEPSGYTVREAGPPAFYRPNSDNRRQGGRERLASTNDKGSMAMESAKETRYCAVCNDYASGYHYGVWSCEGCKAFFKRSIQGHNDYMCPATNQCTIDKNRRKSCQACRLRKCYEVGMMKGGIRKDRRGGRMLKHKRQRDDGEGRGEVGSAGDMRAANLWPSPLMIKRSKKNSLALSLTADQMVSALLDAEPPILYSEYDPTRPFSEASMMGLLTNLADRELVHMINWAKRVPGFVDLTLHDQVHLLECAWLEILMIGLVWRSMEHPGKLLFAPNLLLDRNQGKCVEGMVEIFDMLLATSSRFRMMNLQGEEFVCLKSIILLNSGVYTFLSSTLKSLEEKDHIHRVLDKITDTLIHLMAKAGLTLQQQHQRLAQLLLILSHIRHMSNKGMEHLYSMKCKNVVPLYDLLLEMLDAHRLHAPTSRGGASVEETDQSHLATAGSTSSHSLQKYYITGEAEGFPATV

Series [5] in a line: Human plasma protein binding (equilibrium dialysis). Type of series: in vitro ADME. The settings on record: dialysis 18 hours. The protocol: The automated equilibrium dialysis assay in human plasma uses the RED (Rapid Equilibrium Dialysis) Device and sample handling. The assay generally runs over two to three days including delivery of results. After dialysis for 18 hours, plasma and buffer samples are prepared for analysis by liquid chromatography and mass spectrometry. Samples are generally tested in singlicates and quantified by LC/MSMS by using a 7-point calibration curve in plasma. The compounds are pooled together in plasma pools up to 10 compounds. Three reference compounds are used in each run, Propranolol, Metoprolol and Warfarin. Warfarin is used as a control in each pool and Propranolol and Metoprolol are placed randomly in each run. An in-house Excel macro is used for preparation of files for the robot and the mass spectrometer and is also used for the calculations of fraction unbound (fu %) in plasma.
(In equilibrium dialysis only unbound substance equilibrates across the membrane.)

Another series addresses hERG potassium channel (Homo sapiens (Human), UniProt Q12809). Nature of the series: hERG binding assay (automated patch clamp, CHO cells). It counts as cell-based. The note with it: CHO cell line, Nanion Syncropatch 384PE. The protocol:
Reagent preparations include: • 1.
Cell preparations: • 1. If using cell culture; cells to be incubated at 30° C. for approximately 4-6 days prior to being used. Day of assay lift cells using accutase and re-suspend in 20 ml cell buffer to a density of 0.8 to 1e6 cells/ml. • 2. If using assay ready cryovials; rapidly thaw two cryovials at 37° C. and slowly pipette into 23 ml external solution • 3.
All compounds were acoustically dispensed in quadruplicate using a Labcyte Echo. […] Fill 384 well medium resistance 4 hole chips with 40 μl external buffer and perfuse internal buffer to the underside of plate. • 2. Dispense 20 μl of cells into each well of the chip followed by 20 μl of seal enhancer. • 3. Remove 40 μl of reagent from each well to the wash station, leaving a residual volume of 40 μl • 4. Dispense 40 μl of reference buffer with a removal step of 40 μl after 3 min, repeat this step. • 5.
hERG-mediated currents were elicited using a voltage step protocol consisting of acontinuous holding voltage of −80 mV, with a 500 ms step to 60 mV followed by a 500 ms step to −40 mV every 15 seconds. hERG current magnitude was measured automatically from the leak-subtracted traces by the Nanion software by taking the peak of the hERG “tail” current at −40 mV every 15 seconds and taking the last three of these responses for each concentration to generate the concentration-effect curve.
Calculation of results is performed using APC package within Genedata. For the routine normalization of well data with Neutral and Inhibitor control well groups as reference, GeneData Assay Analyzer uses the following equation to normalize the signal values to the desired signal range:
[formula] • x is the measured raw signal value of a well • is the median of the measured signal values for the Central Reference (Neutral) wells on a plate • is the median of the measured signal values for the Scale Reference (Inhibitor) wells on a plate • CR is the desired median normalized value for the Central Reference (Neutral) • SR is the desired median normalized value for the Scale Reference (Inhibitor)
A general note: Block of hERG is tested as a sign of cardiac risk.

Where [6] appears, read: 1-octanol/aqueous buffer, pH 7.4, pH 7.4, 1-octanol/aqueous buffer.

Sequence of recombinant human Estrogen Receptor alpha ligand binding domain (ER alpha-LBD (GST)) (P03372 307-554): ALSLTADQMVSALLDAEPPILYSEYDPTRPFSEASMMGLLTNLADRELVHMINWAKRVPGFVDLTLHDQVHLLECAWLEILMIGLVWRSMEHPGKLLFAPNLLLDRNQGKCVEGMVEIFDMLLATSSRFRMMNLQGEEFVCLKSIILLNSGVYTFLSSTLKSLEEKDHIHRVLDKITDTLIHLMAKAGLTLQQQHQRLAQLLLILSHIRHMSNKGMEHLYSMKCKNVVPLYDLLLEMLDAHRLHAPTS
Sequence of hERG potassium channel (Q12809 whole entry): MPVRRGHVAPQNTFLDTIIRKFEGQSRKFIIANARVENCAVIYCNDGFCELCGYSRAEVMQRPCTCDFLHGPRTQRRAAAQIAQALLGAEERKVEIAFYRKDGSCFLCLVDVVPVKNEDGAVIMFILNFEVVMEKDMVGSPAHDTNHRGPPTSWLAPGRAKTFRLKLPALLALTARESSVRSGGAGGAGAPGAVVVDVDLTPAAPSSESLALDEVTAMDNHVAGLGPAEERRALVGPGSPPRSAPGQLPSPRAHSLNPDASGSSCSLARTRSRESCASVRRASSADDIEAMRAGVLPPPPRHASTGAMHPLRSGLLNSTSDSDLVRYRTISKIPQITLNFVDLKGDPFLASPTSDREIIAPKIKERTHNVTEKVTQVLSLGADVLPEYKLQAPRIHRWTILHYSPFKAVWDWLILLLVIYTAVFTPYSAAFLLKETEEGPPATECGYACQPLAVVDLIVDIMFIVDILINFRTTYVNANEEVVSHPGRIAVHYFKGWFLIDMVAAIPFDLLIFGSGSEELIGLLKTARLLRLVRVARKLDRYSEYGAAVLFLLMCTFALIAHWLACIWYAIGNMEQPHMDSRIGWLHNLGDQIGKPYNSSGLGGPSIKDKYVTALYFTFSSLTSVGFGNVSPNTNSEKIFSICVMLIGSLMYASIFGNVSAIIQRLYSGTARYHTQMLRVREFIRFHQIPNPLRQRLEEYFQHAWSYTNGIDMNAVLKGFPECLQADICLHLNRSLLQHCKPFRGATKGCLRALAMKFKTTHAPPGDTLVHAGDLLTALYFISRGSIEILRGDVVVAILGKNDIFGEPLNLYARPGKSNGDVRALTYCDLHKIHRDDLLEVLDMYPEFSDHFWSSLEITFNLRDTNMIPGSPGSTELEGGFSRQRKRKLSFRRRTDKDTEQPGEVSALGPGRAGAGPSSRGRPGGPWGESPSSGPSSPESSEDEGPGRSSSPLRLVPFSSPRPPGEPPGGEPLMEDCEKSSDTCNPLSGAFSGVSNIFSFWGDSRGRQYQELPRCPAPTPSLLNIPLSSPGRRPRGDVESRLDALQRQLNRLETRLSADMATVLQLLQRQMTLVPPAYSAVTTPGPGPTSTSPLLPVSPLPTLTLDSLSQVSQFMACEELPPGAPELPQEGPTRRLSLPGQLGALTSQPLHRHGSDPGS

`C[C@@H]1Cc2c(ccc3[nH]ncc23)[C@@H](c2c(F)cc(NC3CN(CCCF)C3)cc2F)N1CC(C)(F)CO` (single isomer, unassigned) [Example 23]: the logD (as a rule, the decadic logarithm of the distribution of all forms, ionised or not, between an organic phase and buffer at a given pH) in series [1] (setting [6]) was determined as 3.1. In addition, the IC50 – broadly, the concentration needed to halve the response being measured – in series [2] came out at 15 nM. In addition, in series [3], the solubility (usually the dissolved amount per volume that the medium holds) at 24 h turned out to be 339 µM (≈ 176 µg/mL). In addition, the DC50 in series [4] was 0.15 nM. Also, the “Human plasma protein binding (% free)” value in series [5] worked out at 9.5 % free.

Take `C[C@@H]1Cc2c(ccc3[nH]ncc23)[C@@H](c2c(F)cc(NC3CN(CCCF)C3)cc2F)N1CC(C)(F)CO` (single isomer, unassigned) [Example 24]: the IC50 in series [2] was found to be 10 nM. Besides, in series [4], the DC50 came out at 0.21 nM.

`COc1cc(NC2CN(CCCF)C2)ccc1[C@@H]1c2ccc3[nH]ncc3c2C[C@@H](C)N1CC1(CF)COC1` [Example 10, N-(4-((6S,8R)-7-((3-(fluoromethyl)oxetan-3-yl)methyl)-8-methyl-6,7,8,9-tetrahydro-3H-pyrazolo[4,3-f]isoquinolin-6-yl)-3-methoxyphenyl)-1-(3-fluoropropyl)azetidin-3-amine] showed a logD in series [1] (setting [6]) of 2.8. For the same compound, the IC50 came to 8 nM in series [2] and 0.26 nM in series [4]. For the same compound, the solubility at 24 h in series [3] came to 634 µM (≈ 333 µg/mL). The “Human plasma protein binding (% free)” value in series [5] is given as 23 % free.

In the case of `CCOc1cc(NC2CN(CCCF)C2)ccc1[C@@H]1c2ccc3[nH]ncc3c2C[C@@H](C)N1CC1(F)CC1` [Example 20, N-(3-ethoxy-4-((6S,8R)-7-((1-fluorocyclopropyl)methyl)-8-methyl-6,7,8,9-tetrahydro-3H-pyrazolo[4,3-f]isoquinolin-6-yl)phenyl)-1-(3-fluoropropyl)azetidin-3-amine], the logD in series [1] (setting [6]) worked out at 2.8. Also, the figures for the IC50 in series [2] and in series [4] were 15 nM and 0.36 nM, respectively. The same compound returned a solubility at 24 h in series [3] of 730 µM (≈ 372 µg/mL). Moreover, the “Human plasma protein binding (% free)” value in series [5] came out at 29 % free.

Regarding `COc1cc(OC2CN(CCCF)C2)ccc1[C@@H]1c2ccc3[nH]ncc3c2C[C@@H](C)N1CC(F)F` [Example 22, (6S,8R)-7-(2,2-difluoroethyl)-6-(4-((1-(3-fluoropropyl)azetidin-3-yl)oxy)-2-methoxyphenyl)-8-methyl-6,7,8,9-tetrahydro-3H-pyrazolo[4,3-f]isoquinoline], the logD in series [1] (setting [6]) is 4. In addition, the IC50 was found to be 5.7 nM in series [2] and 0.062 nM in series [4]. The compound also had a solubility at 24 h in series [3] of 70 µM (≈ 34.2 µg/mL). In series [5], the “Human plasma protein binding (% free)” value was determined as 4.6 % free.

`C[C@@H]1Cc2c(ccc3[nH]ncc23)[C@@H](c2ccc(N(C)C3CN(CCCF)C3)cn2)N1CC(F)F` [Example 43, 6-((6S,8R)-7-(2,2-difluoroethyl)-8-methyl-6,7,8,9-tetrahydro-3H-pyrazolo[4,3-f]isoquinolin-6-yl)-N-(1-(3-fluoropropyl)azetidin-3-yl)-N-methylpyridin-3-amine]: the IC50 in series [2] is 4.1 nM; in series [4], 0.25 nM.

In series [1] (pH 7.4, 1-octanol/aqueous buffer), `C[C@@H]1Cc2c(ccc3[nH]ncc23)[C@@](C)(c2ccc(NC3CN(CCCF)C3)cn2)N1CC(F)F` [Example 44, 6-((6S,8R)-7-(2,2-difluoroethyl)-6,8-dimethyl-6,7,8,9-tetrahydro-3H-pyrazolo[4,3-f]isoquinolin-6-yl)-N-(1-(3-fluoropropyl)azetidin-3-yl)pyridin-3-amine] displayed a logD of 3.2. Besides, the IC50 was 9.6 nM in series [2] and 0.91 nM in series [4]. Further, the solubility at 24 h in series [3] amounted to 998 µM (≈ 472 µg/mL). Also, the “Human plasma protein binding (% free)” value in series [5] is reported as 10 % free.

`C[C@@H]1Cc2c(ccc3[nH]ncc23)[C@@H](c2cnc(NC3CN(CCCF)C3)cn2)N1CC(F)F` [Example 50, 5-((6S,8R)-7-(2,2-difluoroethyl)-8-methyl-6,7,8,9-tetrahydro-3H-pyrazolo[4,3-f]isoquinolin-6-yl)-N-(1-(3-fluoropropyl)azetidin-3-yl)pyrazin-2-amine] came in with a logD in series [1] (setting [6]) of 2.1. Also, the results for the IC50 (in series [2]; on hERG potassium channel; in series [4]) were 2.7 nM, 13000 nM and 0.47 nM, respectively. The solubility at 24 h in series [3] is 748 µM (≈ 344 µg/mL).

In the case of `C[C@@H]1Cc2c(ccc3[nH]ncc23)[C@@H](c2cnc(NC3CN(CCCF)C3)cn2)N1CC1(F)CC1` [Example 55, 5-((6S,8R)-7-((1-fluorocyclopropyl)methyl)-8-methyl-6,7,8,9-tetrahydro-3H-pyrazolo[4,3-f]isoquinolin-6-yl)-N-(1-(3-fluoropropyl)azetidin-3-yl)pyrazin-2-amine], in series [1] (setting [6]), the logD is 2.1. Moreover, the IC50 in series [2] is 8.2 nM; on hERG potassium channel, > 40000 nM; in series [4], 1.1 nM. This compound came in with a solubility at 24 h in series [3] of 987 µM (≈ 461 µg/mL).

As to `C[C@@H]1Cc2c(ccc3[nH]ncc23)[C@@H](c2ccc(N(C)C3CN(CCCF)C3)cn2)N1CC1(F)CC1` [Example 57, 6-((6S,8R)-7-((1-fluorocyclopropyl)methyl)-8-methyl-6,7,8,9-tetrahydro-3H-pyrazolo[4 3-f]isoquinolin-6-yl)-N-(1-(3-fluoropropyl)azetidin-3-yl)-N-methylpyridin-3-amine], in series [1] (setting [6]), the logD stood at 2.9. In addition, the IC50 in series [2] came to 5 nM; on hERG potassium channel, 16000 nM; in series [4], 0.36 nM. In series [3], this compound gave a solubility at 24 h of 615 µM (≈ 296 µg/mL).
